Source: article PMC9967653, “Anticancer Activities of Novel Nicotinamide Phosphoribosyltransferase Inhibitors in Hematological Malignancies” (Molecules, 2023)
pIC50: −log10 of the molar value. Read-outs that look alike come from different tables or passages of the source.

Tests used:
[1] = system: ML2 cells (acute myeloid leukemia); test: Cell death after 96 h of treatment (ANXN/7AAD flow cytometry), ML2; type: cell-based; conditions: Homo sapiens, ML-2; ML2, 96 h
Description: (§1) Four hematological cell lines (ML2—acute myeloid leukemia; Jurkat—acute lymphoblastic leukemia; Namalwa—Burkitt lymphoma; and RPMI8226—multiple myeloma) were purchased from DSMZ (German Collection of Microorganisms and Cell Cultures, Braunschweig, Germany) or ATCC.
(§2) All cells were cultured in RPMI medium (Invitrogen AG, 61870-01) supplemented with 10% heat inactivated fetal calf serum (Amimed, 2-01F30-I) and 1% penicillin/streptomycin at 37 °C (Amimed, 4-01F00-H) in a humidified atmosphere of 95% air and 5% CO2.
(§3) To determine the cell death induced by NAMPT inhibitors, malignant cells were stained with ANNEXIN-V (ANXN, eBioscience, BMS306FI/300) and 7-aminoactinomycin D (7AAD, Immunotech, A07704) as described by the manufacturer and analyzed using flow cytometry. Dead cells were identified as ANXN+7AAD+ /7AAD+ and early apoptotic cells as ANXN+ 7AAD-. Specific cell death induced by inhibitors was calculated using the following formula: percent of cell death induced by compound = [(S – C) / (100 – C)] × 100; where S = treated sample cell death and C = untreated sample cell death.

[2] = system: Jurkat cells (acute lymphoblastic leukemia); test: Cell death after 96 h of treatment (ANXN/7AAD flow cytometry), Jurkat; type: cell-based; conditions: Homo sapiens
Description: as §1, §2, §3

[3] = system: Namalwa cells (Burkitt lymphoma); test: Cell death after 96 h of treatment (ANXN/7AAD flow cytometry), Namalwa; type: cell-based; conditions: Homo sapiens
Description: as §1, §2, §3

[4] = system: RPMI8226 cells (multiple myeloma); test: Cell death after 96 h of treatment (ANXN/7AAD flow cytometry), RPMI8226; type: cell-based; conditions: Homo sapiens, RPMI-8226; RPMI8226, 96 h
Description: as §1, §2, §3

[5] = Pharmacokinetics in mice after intraperitoneal administration; type: in vivo; conditions: for Cmax / Tmax / CL/F / half-life / AUC(0-t) / Vd/F: female SCID mice, intraperitoneal, 20 mg/kg (Figure S1); for Cmax / Tmax / half-life / AUC(0-t) / Vd/F: plasma; for CL/F: dose divided by AUC0-24; for Vd/F: (CL/F)/λz, read-out: Vz/F
Description: Concentration measurements in mice EDTA plasma samples were performed using a Vanquish Flex ultra-high-performance liquid chromatography (UHPLC) system attached to a TSQ Quantis^TM triple quadrupole mass spectrometer (MS) (ThermoFisher Scientific, Waltham, MA, USA). The chromatographic column was a Luna Omega Polar C18 3 µm, 50 × 2.1 mm from Phenomenex (Torrance, CA, USA), kept at 40 °C in a UHPLC oven. The mobile phase was made of water and acetonitrile (ACN) with 0.1% formic acid in each. The gradient program ranged from 20 to 95% ACN in 1.5 min and the total method duration (including equilibration for the next injection) was 3 min. The flow rate and injection volume were 0.5 mL/min and 5 µL, respectively.
For the sample preparation, 90 µL of ACN was added to an aliquot of 30 µL of mouse plasma for protein precipitation. The mixture was then centrifugated at 14,000 rpm and the supernatant was directly injected in the UHPLC–MS.
Drug plasma concentrations were measured at selected time points after intraperitoneal administration in mice (sacrificed mice in triplicates for each time point). Samples were analyzed on two separate occasions for each sampling. Then, pharmacokinetic (PK) parameters were computed using standard non-compartmental calculations for geometric means of the measured concentrations using the “PKNCA R Package” (R version 4.0.2, R Development Core Team, http://www.r-project.org/ access date: 4 February 2023).
The area under the curve (AUC0-24) was calculated for the four drugs using the trapezoidal and log-trapezoidal rule when appropriate. The terminal rate constant (λz) was approximated using the slope of the terminal phase, while the half-life (T1/2) was calculated as ln(2)/λz, the apparent clearance (CL/F) as the dose divided by AUC0-24 and the apparent volume of distribution (Vz/F) as (CL/F)/λz.

purified NAMPT = target: T1, purified NAMPT (Homo sapiens, UniProt P43490); test: NAMPT enzymatic activity assay (colorimetric kit); type: biochemical; conditions: 1 µM final concentration
T1 construct: purchased Abcam ab221819
T1 sequence (P43490 whole entry): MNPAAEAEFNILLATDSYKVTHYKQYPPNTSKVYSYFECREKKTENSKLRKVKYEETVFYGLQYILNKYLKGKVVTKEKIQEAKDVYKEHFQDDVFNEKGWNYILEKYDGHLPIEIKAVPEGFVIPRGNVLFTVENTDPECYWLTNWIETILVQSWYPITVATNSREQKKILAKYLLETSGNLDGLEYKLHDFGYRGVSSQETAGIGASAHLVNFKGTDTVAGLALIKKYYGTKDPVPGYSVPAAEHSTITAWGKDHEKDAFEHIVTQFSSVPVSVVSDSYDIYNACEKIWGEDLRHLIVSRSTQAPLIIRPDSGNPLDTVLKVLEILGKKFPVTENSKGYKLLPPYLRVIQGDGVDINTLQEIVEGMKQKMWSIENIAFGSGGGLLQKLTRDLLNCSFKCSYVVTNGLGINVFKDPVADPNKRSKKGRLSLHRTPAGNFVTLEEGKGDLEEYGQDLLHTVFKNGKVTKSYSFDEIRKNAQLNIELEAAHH
Description: The ability of FK866 (APO866) analogues to inhibit NAMPT activity was assessed with an NAMPT Activity Assay Kit (Colorimetric) (Abcam, ab221819, Cambridge, UK) according to the manufacturer’s instructions. Briefly, NAMPT inhibitors were dissolved in DMSO to a final concentration of 1 µM and distributed in a 96-well plate in duplicate. Then, a reaction mix containing assay buffer, ATP, NMNAT1, NAM, PRPP and ddH2O was added and the plate was incubated at 30 °C for 60 min. After, to measure the generated NAD^+, a mix of WST-1, ADH, diaphorase and ethanol was added to the wells. The absorbance was measured in kinetic mode at 450 nm on a microplate reader for 45 min at 30 °C.
Figure 2 New compounds with a potent NAMPT inhibitory activity. Compounds were added in 1 µM final concentration to purified NAMPT and incubated with co-substrates, resulting in a reduction of tetrazolium salt (WST-1) to colorful formazan. The amount of formed dye is directly proportional to the enzyme activity. The absorbance of the dye was detected at OD 450 nm.

[6] = system: ML2, Jurkat, Namalwa and RPMI8226 cells; test: Cell death in the four hematological cancer cell lines, statements for all lines together; type: cell-based, human; conditions: 96 h
Description: as §1, §2, §3
A dose-dependent analysis of cell death induced by NAMPT inhibitors on ML2 (A), Jurkat (B), Namalwa (C) and RPMI8226 (D) cell lines. The cells were treated with various concentrations of NAMPT inhibitors for 96 h and cell death was assessed by flow cytometry using ANXN and 7AAD staining. […]

[7] = system: Namalwa tumors (human Burkitt lymphoma cell line); test: Mouse xenograft model of human Burkitt lymphoma; type: in vivo; conditions: for Tumor growth: 10 mg/kg I.P. twice a day for 4 days, weekly over 3 weeks, JJ08: 5 days after administration
Description: The new NAMPT inhibitors (JJ08, FEI191 and FEI199 (in comparison with lead compound, FK866 (APO866))) were evaluated in vivo in a mouse xenograft model of human Burkitt lymphoma. […] non-leaky C.B.-17 SCID mice (8 to 10 weeks old; Iffa Credo, L’Arbresle, France) were housed in micro-isolator cages in a specific pathogen-free room in the animal facility at the University Hospital of Lausanne. Firstly, the mice spent one week alone to acclimatize to their new environment. All animals were handled according to the institutional regulations and with the prior approval of the animal ethic committee of the University of Lausanne. Manipulations were performed in sterile conditions under a laminar flow hood. Firstly, Namalwa cells (1 × 10^7) were injected subcutaneously into the mouse flank side. Once the tumors became palpable and reached a size between 100 and 150 mm^3, mice (n = five/ group) were randomized into control and treated groups. The drugs were administered intraperitoneally (10 mg/kg body weight) in 200 µL 0.9% saline twice a day for 4 days, repeated weekly over 3 weeks. The control group was treated only with 200 µL 0.9% saline. Every day, the animals were monitored for any signs of illness, and in cases where the tumor size reached a diameter of 15 mm, they were sacrificed immediately.
Tumor size (A) and survival rate (B) of mice xenografted with Namalwa cells treated or untreated with NAMPT inhibitors were monitored for 21 days. Twenty-five 6-to-8-week-old C.B.-17 SCID mice were transplanted subcutaneously with Namalwa cells (10^7). Once tumors reached a volume of approximately 100–150 mm^3, at day 14, mice were randomized into five groups of animals (n = 5) with similar body weight. Control groups received vehicle (pink line) and JJ08 (10 mg/kg; light blue line), FEI191 (10 mg/kg; red line), FEI199 (10 mg/kg; green line) or APO866 (10 mg/kg; blue line) were administered as described in the Materials and Methods section. […] Data were analyzed by the Kaplan–Meier survival analysis with log-rank test.

Row | Structure (SMILES) | pIC50 [1] | pIC50 [2] | pIC50 [3] | pIC50 [4] | Cmax [5] | Tmax [5] [h] | CL/F [5] [mL/h] | half-life ([5]; mouse, ip) [h] | AUC(0-t) ([5]; mouse, ip, read-out: AUC0-24) [ng·h/mL] | Vd/F ([5]; mouse, ip) [L] | Inhibition of NAMPT activity (purified NAMPT) | Tumor growth [7] | other results
1 | O=C(/C=C/c1cccnc1)NCCCCC1CCN(C(=O)c2ccccc2)CC1 [APO866, reference compound] | 9.39 | 9.33 | 9.24 | 9.64 | 28,028 ng/mL | 0.17 | 24 | 3.74 | 16400 | 0.131 |  |  | 
2 | N#CN=C(NC/C=C/CCC1CCN(C(=O)c2ccco2)CC1)Nc1ccncc1 [FEI199] | 9.68 | 9.60 | 9.54 | 9.92 | 12,031 ng/mL | 0.17 | 108 |  |  |  | full inhibition | did not stop tumor progression, but significantly delayed it | pIC50 ([6]; Homo sapiens, all four cell lines, read-out: IC50 in all malignancies): > 9.52; Concentration inducing maximal cell killing ([6]; all tested cell lines): ≤ 0.5 nM; Clearance, fold higher than APO866 or JJ08 ([5]; mice, I.P.): more than 4 fold; AUC(0-t) ([5]; mouse, ip, AUC calculated from PK measurements up to 8 h, read-out: AUC0-24 (*)): 3720 ng·h/mL
3 | O=C(/C=C/c1cccnc1)NCCCCC1CCN(C(=O)c2ccco2)CC1 [JJ08, (E)-N-(4-(1-(furan-2-carbonyl)piperidin-4-yl)butyl)-3-(pyridin-3-yl)acrylamide] | 9.29 | 9.07 | 9.24 | 9.52 |  |  | 53 | 6.58 | 7560 | 0.502 | full inhibition | completely eradicated tumor growth | AUC0-24, fold lower than that of APO866 ([5]; mice, I.P.): approximately 2 fold; CL/F, fold higher compared to APO866 ([5]; mice, I.P.): 2 fold; Cmax ([5]; mouse, ip, read-out: Cmax): 24300 ng/mL; Tmax ([5]; mouse, ip, read-out: Tmax): 0.17 h; Signs of toxicity (loss of body weight, lethargy, rough coat, premature death) ([7]; xenografted mice, 10 mg/kg I.P.): well tolerated
